# Results from US8624027B2, “Combination therapy for treating cancer and diagnostic assays for use therein” (AbbVie Inc., priority 2005, dated 2014).
# Experiments:
# HCT116 cells [1] = assay: Cell viability of polyploid cells after ABT-263; type: cell-based, human; details: cells made polyploid with 200 nM AZD1152 (with or without washout); 1 μM ABT-263 for 24 hours; not in diploid cells
# Description: (§1) Cell viability was determined 72 hours post-transfection. The red curve represents a synergistic combination. […] HCT116 cells (FIG. 10C-FIG. 10F) were treated for 24 hours with DMSO or 200 nM AZD1152. AZD1152 was then either left in the culture medium (AZD 1152) or washed out by replacing the medium with drug-free growth medium (AZD 1152 washout).
# Generally, cells were seeded at >90% viability (as determined by trypan blue exclusion) into 96-well plates overnight, treated with compounds or siRNAs for indicated duration, and the overall cell viability was determined by measuring luminescence.
# HCT116 cells [2] = assay: Caspase-3 activity in polyploid cells (Caspase-GLO 3/7); type: cell-based, human; details: cells made polyploid with 200 nM AZD1152 (with or without washout); 1 μM ABT-263 for 4 hours; not in diploid cells
# Description: as §1
# Caspase-3 activity was determined using the Caspase-GLO 3/7 Assay (Promega) in tandem with the CellTiter-GLO viability assay (Promega). Parallel experiments were performed, where in one experiment Caspase-3/7 activity was measured and in the other, cell viability was determined. As Caspase-3/7 activity on a per cell basis reflects both the specific activity of the Caspase-3 enzyme and the number of viable cells, the data are expressed as Caspase-3/7 activity divided by cell viability.
# B-cell lymphoma = assay: Oral efficacy of EXAMPLE 1 in combination therapy, antitumorigenesis on B-cell lymphoma; type: in vivo
# [3] = test system: NCI-H146 human small cell lung carcinoma cells; assay: Cellular efficacy in human tumor cell line (MTS viability assay); type: cell-based; details: NCI-H146; 10% human serum, 48 hours; Table 1; read-out: NCI-H146 Cellular Efficacy EC50
# Method in brief: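 Cells plated at 50,000/well in medium with 10% human serum in place of FBS. Treated with 2-fold serial dilutions from 10 μM to 0.020 μM, in duplicate, at least 3 separate runs. Viable cells measured by MTS after 48 h of compound exposure.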
# BAX and BAK = BAX and BAK activation, immunoprecipitation of active conformers; type: cell-based, human; details: HCT116, D54MG, SW620, EJ1 cells made polyploid with 200 nM AZD1152 72 hours, then 1 μM ABT-263
# Description: HCT116 cells (FIG. 11A) were treated with DMSO or 200 nM AZD1152 for 72 hours followed by 2 hours with 1 μM ABT-263. Conformationally active BAK or BAX was immunoprecipitated and detected by immunoblotting. D54MG and HCT116 cells (FIG. 11B) were treated DMSO or 200 nM AZD1152 for 72 hours prior to the addition of 1 μM ABT-263 for 4 hours. Conformationally active BAK or BAX was immunoprecipitated and detected by immunoblotting (top and middle panel). Cell lysates were also fractionated and Cytochrome C release into the cytosolic fraction was detected by immunoblotting. HCT116, SW620, and D54MG cells (FIG. 11C) were treated with DMSO (untreated) or 200 nM AZD1152 (AZD1152) for 72 hours and the expression of Bcl-2 network components were detected by immunoblotting (FIG. 11D-FIG. 11E) HCT116 cells were treated as in FIG. 11B. Endogenous Bcl-XL and Mcl-1 were immunoprecipitated, and the Bcl-2 network components in the immunecomplexes were detected by immunoblotting.
# FIG. 14 BAK and BAX activation in tumor cell lines. D54MG, SW620, and EJ1 cells were treated as in FIG. 17B. Conformationally active BAK and BAX was immunoprecipitated and detected by immunoblotting.
# Cell lysates were either prepared using a CHAPS lysis buffer (10 mM HEPES, pH 7.4, 150 mM NaCl, 1% CHAPS) or a cell extraction buffer containing 1% Triton X-100, 0.1% SDS, and 0.5% deoxycholate (Invitrogen). […]
structure (smiles),measurement,setting,value
"CC1(C)CCC(c2ccc(Cl)cc2)=C(CN2CCN(c3ccc(C(=O)NS(=O)(=O)c4ccc(N[C@H](CCN5CCOCC5)CSc5ccccc5)c(S(=O)(=O)C(F)(F)F)c4)cc3)CC2)C1 [Example 1, N-(4-(4-((2-(4-chlorophenyl)-5,5-dimethyl-1-cyclohex-1-en-1-yl)methyl)piperazin-1-yl)benzoyl)-4-(((1R)-3-(morpholin-4-yl)-1-((phenylsulfanyl)methyl)propyl)amino)-3-((trifluoromethyl)sulfonyl)benzenesulfonamide]",cell viability of polyploid cells,HCT116 cells [1],loss of viability
same,Caspase-3 activity in polyploid cells,HCT116 cells [2],induced Caspase-3 activity
same,efficacy of cytotoxic agents during combination therapy,"B-cell lymphoma; EXAMPLE 1 orally with etoposide, vincristine, CHOP, rituximab, rapamycin",synergistically enhanced efficacy
same,complete tumor regression,B-cell lymphoma; combination of EXAMPLE 1 and rapamycin,70%
same,complete tumor regression,B-cell lymphoma; combination of EXAMPLE 1 and rituximab,70%
same,complete tumor regression,B-cell lymphoma; combination of EXAMPLE 1 and vincristine,10%
same,EC50,[3],89.1 nM
same,BAX and BAK activation in polyploid cells,BAX and BAK,rapidly and synergistically induced BAX and BAK activation
